# Results: US20060228754A1 (priority 1998, published 2006)
# Columns and labels:
# [1] = molecular target: T1, human α-thrombin (Homo sapiens, UniProt P00734); conditions: affinity label; cited from earlier work
# T1 construct: screened against immobilized human α-thrombin; purchased Sigma Chemical Co
# [2] = molecular target: T2, cholera toxin B subunit (Vibrio cholerae serotype O1, UniProt P01556); conditions: cited from earlier work
# [3] = molecular target: T2, cholera toxin B subunit; format: binding
# [4] = molecular target: T3, L-selectin (Homo sapiens, UniProt P14151); conditions: cited from earlier work
# T3 sequence (P14151 39-372): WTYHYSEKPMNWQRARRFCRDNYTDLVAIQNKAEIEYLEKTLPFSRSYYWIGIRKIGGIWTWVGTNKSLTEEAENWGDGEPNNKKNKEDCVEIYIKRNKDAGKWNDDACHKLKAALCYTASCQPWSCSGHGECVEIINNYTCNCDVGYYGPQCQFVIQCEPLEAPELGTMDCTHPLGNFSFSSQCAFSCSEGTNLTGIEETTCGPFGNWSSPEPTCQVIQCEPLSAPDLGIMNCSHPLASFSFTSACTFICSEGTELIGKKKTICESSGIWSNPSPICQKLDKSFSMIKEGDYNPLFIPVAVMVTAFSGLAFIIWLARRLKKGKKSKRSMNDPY
# T2 sequence (P01556 22-124 limits assumed): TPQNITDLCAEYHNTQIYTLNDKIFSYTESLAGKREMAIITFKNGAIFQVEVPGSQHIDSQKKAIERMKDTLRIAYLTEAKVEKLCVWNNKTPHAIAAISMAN
compound,measurement,setting,value
fPR-chloromethyl ketone,Kd,[1],~50 nM
"CC(=O)N[C@H]1[C@H](O[C@@H]2[C@H](O[C@]3(C(=O)O)C[C@H](O)[C@@H](NC(C)=O)[C@H]([C@H](O)[C@H](O)CO)O3)[C@@H](O)[C@H](O[C@H]3[C@H](O)[C@@H](O)[C@H](O)O[C@@H]3CO)O[C@@H]2CO)O[C@H](CO)[C@H](O)[C@@H]1O[C@@H]1O[C@H](CO)[C@H](O)[C@H](O)[C@H]1O [compound 7, GM1 oligosaccharide]",Kd,[2],~100 nM
same,break through volume,[3],~300 µL
O=P(O)(O)O[C@H]1[C@H](OP(=O)(O)O)[C@@H](OP(=O)(O)O)[C@H](OP(=O)(O)O)[C@@H](OP(=O)(O)O)[C@H]1OP(=O)(O)O [phytic acid],Kd,[4],1000 nM
"COC(=O)CCCCCCCCOC1OC(COC2OC(CO)C(O)C(O)C2O)C(O)C(OC2OC(CO)C(O)C(O)C2O)C1O (stereo not drawn) [compound 3, αMan(1-3)[αMan(1-6)]βMan-OGr]",break through (in words),[3],broke through in the void volume
"CC(=O)NC1C(O)CC(OCCOC2OC(CO)C(O)C(OC3OC(CO)C(O)C(O)C3O)C2NC(C)=O)(C(=O)O)OC1C(O)C(O)CO (stereo not drawn) [compound 8, βGal(1-3)βGalNAc(1-)-OCH2CH2O-(-2)αNeu5Ac]",break through time,[3],about 11 min
